The subject of the assay is HepG2. Kind of assay: Cell viability, crystal violet assay, HepG2. The note with it: mean ± standard error. The class given is cell-based, human. From the text:
The human hepatoma cell line HepG2 was obtained from the American Tissue Culture Collection (ATCC, Manassas, VA, USA). The human hepatoma cell line Hep3B was obtained from the European Collection of Authenticated Cell Cultures (ECACC, Porton Down, Salisbury, Wiltshire, UK). HH4 non-transformed human hepatocyte cell line (kindly provided by Dr. I. Fabregat, Molecular Oncology, Bellvitge Biomedical Research Institute, Spain) was established as described.
HepG2 and Hep3B cell lines were maintained in Eagle’s Minimum Essential Medium and HH4 cell line was grown in Ham´s F12 Nutrient Mixture (Sigma-Aldrich, St Louis, MO, USA). Both culture media were supplemented with 10% heat inactivated fetal bovine serum, 2 mM L-glutamine and antibiotics (0.1 mg/mL streptomycin and 100 U/mL penicillin) (Sigma-Aldrich, St Louis, MO, USA). Cell cultures were grown in an incubator at 37 °C with 5% CO2 atmosphere. After reaching approximately 80% of confluence, cells were detached in a solution of 0.1% trypsin and 0.04% EDTA and plated as required for further experiments.
Cell lines were seeded into 96-well plates at 5 × 10^3 (HepG2) and 3 × 10^3 (Hep3B and HH4) cells/well 24 h before treatment. Increasing concentrations of the monomer trans-resveratrol, the dimers ampelopsin A and trans-ε-viniferin and the tetramers isohopeaphenol, hopeaphenol, R2-viniferin and R-viniferin were then added and cells were incubated for 24, 48, and 72 h. Stilbenes were dissolved in dimethyl sulfoxide (DMSO), Sigma-Aldrich, St Louis, MO, USA) at a final concentration of 0.01%. The same amount of DMSO was added to control cells. After treatment, the cell viability was determined using the crystal violet assay. The absorbance was recorded at 590 nm in a Synergy HT microplate reader (BioTek, Winooski, VT, USA). Cell viability was calculated as the percentage of viable cells treated with stilbene versus untreated control cells using the following equation: Cell viability (%) = [OD (Treatment) − OD (Blank)]/[OD (Control) − OD (Blank)] × 100. The cytotoxic effect of stilbenes was determined by calculating IC50 values using non-linear regression analysis (GraphPad Prism 6, San Diego, CA, USA).
The statistical package SPSS 19.0 (SPSS Inc. Chicago, IL, USA) was used for data analysis. The results were expressed as mean ± standard error (SE) from at least three experiments. Statistical significance for the differences of the means was estimated by parametric Student’s t-test. Differences between means were considered statistically significant for p < 0.05. IC50 values were derived from fitting the data to a sigmoidal dose-response curve with a three-parameter logistic model using Graph Pad Prism 6.

Some results are limits rather than exact numbers.

With `Oc1ccc([C@H]2c3c(O)cc(O)cc3[C@H]3c4c(cc(O)cc4[C@@H]2c2cc(/C=C/c4cc(O)cc5c4[C@H](c4cc(O)cc(O)c4)[C@@H](c4ccc(O)cc4)O5)ccc2O)O[C@@H]3c2ccc(O)cc2)cc1` [R2-Viniferin], the IC50 is 9.7 ± 0.4 µM (72 h); above 200 µM (Homo sapiens, HepG2, 24 h, 24 h); 10.2 ± 8.2 µM (Homo sapiens, HepG2, 48 h, 48 h); below 10 µM (Homo sapiens, HepG2, 72 h, 72 h).

What is called IC50 is the concentration at which inhibition is half-maximal.
